Measurements taken from ChEMBL document CHEMBL1201862, “PubChem BioAssay data set” (2004).
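How tested: cells in 96-well plates exposed to compound for 48 hours at five concentrations. GI50 = concentration required for 50% inhibition of growth.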 Calls of active or inactive are those of the source. Rule as the data show it: active = GI50 up to about 1.1 µM and inactive = higher.

Legend:
Assay in all cases: NCI anticancer screen, dose series, 48 h
CCRF-CEM = system: CCRF-CEM
IGROV-1 = system: IGROV-1
Hs-578T = system: Hs-578T
UO-31 = system: UO-31
MDA-MB-231 = system: MDA-MB-231
SN12C = system: SN12C
SF-268 = system: SF-268
SNB-75 = system: SNB-75
M14 = system: M14
HT-29 = system: HT-29
MDA-MB-435 = system: MDA-MB-435
Malme-3M = system: Malme-3M
BT-549 = system: BT-549
SNB-19 = system: SNB-19
SK-MEL-28 = system: SK-MEL-28
HOP-92 = system: HOP-92
HCT-15 = system: HCT-15
SW-620 = system: SW-620
COLO 205 = system: COLO 205
SK-MEL-5 = system: SK-MEL-5

SMILES	GI50 (CCRF-CEM)	GI50 (IGROV-1)	GI50 (Hs-578T)	GI50 (UO-31)	GI50 (MDA-MB-231)	GI50 (SN12C)	GI50 (SF-268)	GI50 (SNB-75)	GI50 (M14)	GI50 (HT-29)	GI50 (MDA-MB-435)	GI50 (Malme-3M)	GI50 (BT-549)	GI50 (SNB-19)	GI50 (SK-MEL-28)	GI50 (HOP-92)	GI50 (HCT-15) [µM]	GI50 (SW-620)	GI50 (COLO 205)	GI50 (SK-MEL-5)
O=C1c2cccnc2S(=O)(=O)N1c1ccc(Br)cc1	43 µM (inactive)	> 100 µM (inactive)	> 100 µM (inactive)	> 100 µM (inactive)	> 100 µM (inactive)	> 100 µM (inactive)	> 100 µM (inactive)	95.1 µM (inactive)	> 100 µM (inactive)	> 100 µM (inactive)	> 100 µM (inactive)	73.6 µM (inactive)	79.1 µM (inactive)	75.7 µM (inactive)	> 100 µM (inactive)	99.8 µM (inactive)	> 100	> 100 µM (inactive)	> 100 µM (inactive)	> 100 µM (inactive)
CC(C)CC1N=C(OCc2ccccc2)OC1=O (stereo not given)	> 100 µM (inactive)	> 100 µM (inactive)	> 100 µM (inactive)	> 100 µM (inactive)	> 100 µM (inactive)	> 100 µM (inactive)	2.79 µM (inactive)	> 100 µM (inactive)	> 100 µM (inactive)	> 100 µM (inactive)	> 100 µM (inactive)	> 100 µM (inactive)	> 100 µM (inactive)	> 100 µM (inactive)	> 100 µM (inactive)	> 100 µM (inactive)	> 100	> 100 µM (inactive)	> 10 µM (inactive)	45.7 µM (inactive)
CCOC(=O)C(Cc1c2ccccc2cc2ccccc12)(NC(C)=O)C(=O)OCC	56.4 µM (inactive)	> 45 µM (inactive)	46.8 µM (inactive)	> 85.9 µM (inactive)	> 23.1 µM (inactive)	> 100 µM (inactive)	36.9 µM (inactive)	> 19.8 µM (inactive)	> 75.9 µM (inactive)	> 86.9 µM (inactive)	> 72.4 µM (inactive)	> 100 µM (inactive)	99.8 µM (inactive)	> 78.5 µM (inactive)	> 100 µM (inactive)	14.2 µM (inactive)	> 49.3	> 79.8 µM (inactive)	> 53.2 µM (inactive)	> 50.6 µM (inactive)
C#C/C=C\CCCCCCCCCCCCCC/C=C\CCCCC#CC(O)C#CCCCC/C=C\CCCCCC/C=C/C(O)C#C (stereo not given)	5.25 µM (inactive)	13.6 µM (inactive)	42.5 µM (inactive)	15.6 µM (inactive)	34.2 µM (inactive)	24.2 µM (inactive)	17.2 µM (inactive)	42.7 µM (inactive)	12.9 µM (inactive)	18.3 µM (inactive)	4.58 µM (inactive)	17.1 µM (inactive)	> 71.9 µM (inactive)	25.1 µM (inactive)	21 µM (inactive)	16.4 µM (inactive)	22.5	7.5 µM (inactive)	14.1 µM (inactive)	5.89 µM (inactive)
CCSC12CC3c4cccc5c4C(CN5C(=O)c4ccccc4)CC3(O1)N(C)C2=O (stereo not given)	28.6 µM (inactive)	31.3 µM (inactive)	46.3 µM (inactive)	47.3 µM (inactive)	27.9 µM (inactive)	17.2 µM (inactive)	42.7 µM (inactive)	73.6 µM (inactive)	46.7 µM (inactive)	42.6 µM (inactive)	34.8 µM (inactive)	35.6 µM (inactive)	26.1 µM (inactive)	87.3 µM (inactive)	48.4 µM (inactive)	24.1 µM (inactive)	29.4	75.5 µM (inactive)	26.1 µM (inactive)	14.7 µM (inactive)
